Columns and labels:
[1] = tested on: HCT 116 wild-type MTAP cells; assay: Inhibition of proliferation of HCT116 wild-type MTAP cells (CellTiter-Glo, 6 days); assay type: cell-based; settings: Homo sapiens, HCT-116, 144 h
Method: (§1) 1. HCT 116 MTAP-knockout cells and HCT 116 wild-type MTAP cells were plated in 96-well flat-bottom plates and cultured overnight at 37° C. and […] in McCoy's 5A medium containing 10% fetal bovine serum+1% penicillin-streptomycin.
(§2) 2. The next day, compounds were each dissolved in DMSO, diluted successively with DMSO and medium and then transferred to cell plates; the final concentration of each compound was 10 μM, 4-fold dilution was performed to obtain 9 concentration points, and a DMSO control was provided.
(§3) 3. Cells not treated with compound were subjected to CellTiter-Glo Luminescent Cell Viability Assay (Promega) to detect the cell viability, and reference was made to the kit instructions for the operation; the plates were then placed on an EnVision Multilabel Reader to detect luminescence signals.
(§4) 4. Meanwhile, the cell plates containing cells treated with compounds were cultured continuously at 37° C. and […] CO2 for 6 days.
(§5) 5. Then, the cell viability was also detected by CellTiter-Glo.
(§6) 6. Finally, dose response curves were plotted using the four parameter dose response curve module of GraphPad Prism v 9.2.0 software and proliferation inhibition IC50 (unit: nM) was calculated.

[2] = tested on: HCT 116 MTAP-knockout cells; assay: Inhibition of proliferation of HCT116 MTAP-knockout cells (CellTiter-Glo, 6 days); assay type: cell-based, human; settings: for IC50: Homo sapiens, HCT-116, 144 h, proliferation inhibition, HCT116 MTAP-knockout, 6 days, CellTiter-Glo; for Selectivity: IC50 HCT116 wild-type cells / IC50 HCT116 MTAP-knockout cells
Method: as §1, §2, §3, §4, §5, §6

Compound	IC50 [1] [nM]	IC50 [2] [nM]	Selectivity [2]
C[C@H](c1ncccn1)N(Cc1ccc(C(F)(F)F)cn1)C(=O)c1ccc2nc(N)c3c(cnn3C)c2c1 [Comparative compound 1, reference compound]	42.7	16.3	2.6
CC(c1ncccn1)N(Cc1ccc(C(F)(F)F)cn1)C(=O)c1ccc2nc(N)c3[nH]ncc3c2c1 (stereo not drawn) [Comparative compound 2, reference compound]	78.3	35.5	2.2
CC(C1CC1)N(Cc1ccc(C(F)(F)F)cn1)C(=O)c1ccc2nc(N)c3cnn(C)c3c2c1 (stereo not drawn) [Comparative compound 3, reference compound]	96	6	16
C[C@H](c1ncccn1)N(Cc1ccc(C(F)(F)F)cn1)C(=O)c1ccc2nc(N)c3cnn(C)c3c2c1 [Comparative compound 4, reference compound]	85	6	14.2
Cc1ncc2c(N)nc3ccc(C(=O)N(Cc4ccc(C(F)(F)F)cn4)[C@H](C)c4ncccn4)cc3n12 [Example 1, (R)-4-amino-1-methyl-N-(1-(pyrimidin-2-yl)ethyl)-N-((5-(trifluoromethyl)pyridin-2-yl)methyl)imidazo[1,5-a]quinoxaline-8-carboxamide]	1500	29	51.7
Cc1ncc2c(N)nc3cc(F)c(C(=O)N(c4cnn(C)c4)[C@@H]4COc5cc(C(F)(F)F)ccc54)cc3n12 [Example 2, (S)-4-amino-7-fluoro-1-methyl-N-(1-methyl-1H-pyrazol-4-yl)-N-(6-(trifluoromethyl)-2,3-dihydrobenzofuran-3-yl)imidazo[1,5-a]quinoxaline-8-carboxamide]	207	5	41.4
C[C@H](c1ncccn1)N(Cc1ccc(C(F)(F)F)cn1)C(=O)c1ccc2nc(N)c3cncn3c2c1 [Example 3, (R)-4-amino-N-(1-(pyrimidin-2-yl)ethyl)-N-((5-(trifluoromethyl)pyridin-2-yl)methyl)imidazo[1,5-a]quinoxaline-8-carboxamide]	166	8	20.8
C[C@@H]1COC[C@H](c2ccc(C(F)(F)F)cn2)N1C(=O)c1ccc2nc(N)c3cncn3c2c1 [Example 14a, (4-aminoimidazo[1,5-a]quinoxalin-8-yl)((3R,5S)-3-methyl-5-(5-(trifluoromethyl)pyridin-2-yl)morpholino)methanone]	2060	55	37.4
Nc1nc2ccc(C(=O)N(CC3CC3)C3CCc4cc(C(F)(F)F)ccc43)cc2n2cncc12 (stereo not drawn) [Example 22, 4-amino-N-(cyclopropylmethyl)-N-(5-(trifluoromethyl)-2,3-dihydro-1H-inden-1-yl)imidazo[1,5-a]quinoxaline-8-carboxamide]	5480	154	35.6
Cn1cc(N(C(=O)c2ccc3nc(N)c4cncn4c3c2)C2COc3cc(C(F)(F)F)ccc32)cn1 (stereo not drawn) [Example 30, 4-amino-N-(1-methyl-1H-pyrazol-4-yl)-N-(6-(trifluoromethyl)-2,3-dihydrobenzofuran-3-yl)imidazo[1,5-a]quinoxaline-8-carboxamide]	725	12	60.4
Cn1cc(N(C(=O)c2ccc3nc(N)c4cncn4c3c2)[C@@H]2COc3cc(C(F)(F)F)ccc32)cn1 [Example 30a, (S)-4-amino-N-(1-methyl-1H-pyrazol-4-yl)-N-(6-(trifluoromethyl)-2,3-dihydrobenzofuran-3-yl)imidazo[1,5-a]quinoxaline-8-carboxamide]	381	4	95.3
Nc1nc2ccc(C(=O)N(CC3CC3)[C@@H]3CCc4nc(C(F)(F)F)ccc43)cc2n2cncc12 [Example 34a, (R)-4-amino-N-(cyclopropylmethyl)-N-(2-(trifluoromethyl)-6,7-dihydro-5H-cyclopenta[b]pyridin-5-yl)imidazo[1,5-a]quinoxaline-8-carboxamide]		225	
Nc1nc2ccc(C(=O)N(CC3CC3)[C@H]3CCc4nc(C(F)(F)F)ccc43)cc2n2cncc12 [Example 34b, (S)-4-amino-N-(cyclopropylmethyl)-N-(2-(trifluoromethyl)-6,7-dihydro-5H-cyclopenta[b]pyridin-5-yl)imidazo[1,5-a]quinoxaline-8-carboxamide]		1820	
Nc1nc2ccc(C(=O)N(Cc3ccc(C(F)(F)F)cn3)CC3CC3)cc2n2cncc12 [Example 144, 4-amino-N-(cyclopropylmethyl)-N-((5-(trifluoromethyl)pyridin-2-yl)methyl)imidazo[1,5-a]quinoxaline-8-carboxamide]	2060	22	93.5
CC(C1CC1)N(Cc1ccc(C(F)(F)F)cn1)C(=O)c1ccc2nc(N)c3cncn3c2c1 (stereo not drawn) [Example 145, 4-amino-N-(1-cyclopropylethyl)-N-((5-(trifluoromethyl)pyridin-2-yl)methyl)imidazo[1,5-a]quinoxaline-8-carboxamide]	1080	24	44.8
CN(Cc1ccc(C(F)(F)F)cn1)C(=O)c1ccc2nc(N)c3cncn3c2c1 [Example 146, 4-amino-N-methyl-N-((5-(trifluoromethyl)pyridin-2-yl)methyl)imidazo[1,5-a]quinoxaline-8-carboxamide]	> 10000	224	>44.6
Nc1nc2ccc(C(=O)N(Cc3ccc(C(F)(F)F)cn3)C3CCC3)cc2n2cncc12 [Example 147, 4-amino-N-cyclobutyl-N-((5-(trifluoromethyl)pyridin-2-yl)methyl)imidazo[1,5-a]quinoxaline-8-carboxamide]	4990	115	43.4
Nc1nc2ccc(C(=O)N(Cc3ccc(C(F)(F)F)cn3)CC(F)(F)F)cc2n2cncc12 [Example 148, 4-amino-N-(2,2,2-trifluoroethyl)-N-((5-(trifluoromethyl)pyridin-2-yl)methyl)imidazo[1,5-a]quinoxaline-8-carboxamide]	> 10000	202	>49.5
Cn1cc(N(Cc2ccc(C(F)(F)F)cn2)C(=O)c2ccc3nc(N)c4cncn4c3c2)cn1 [Example 149, 4-amino-N-(1-methyl-1H-pyrazol-4-yl)-N-((5-(trifluoromethyl)pyridin-2-yl)methyl)imidazo[1,5-a]quinoxaline-8-carboxamide]	7210	50	144.1
CCC(C1CC1)N(Cc1ccc(C(F)(F)F)cn1)C(=O)c1ccc2nc(N)c3cncn3c2c1 (stereo not drawn) [Example 154, 4-amino-N-(1-cyclopropylpropyl)-N-((5-(trifluoromethyl)pyridin-2-yl)methyl)imidazo[1,5-a]quinoxaline-8-carboxamide]	406	22	18.5
Nc1nc2ccc(C(=O)N(Cc3ccc(OC(F)(F)F)cn3)CC3CC3)cc2n2cncc12 [Example 158, 4-amino-N-(cyclopropylmethyl)-N-((5-(trifluoromethoxy)pyridin-2-yl)methyl)imidazo[1,5-a]quinoxaline-8-carboxamide]		68	
Nc1nc2ccc(C(=O)N(CC3CC3)[C@H]3COc4nc(C(F)(F)F)ccc43)cc2n2cncc12 [Example 181b, (R)-4-amino-N-(cyclopropylmethyl)-N-(6-(trifluoromethyl)-2,3-dihydrofuro[2,3-b]pyridin-3-yl)imidazo[1,5-a]quinoxaline-8-carboxamide]		3130	
CC(c1ccc(C(F)(F)F)cn1)N(CC1CC1)C(=O)c1ccc2nc(N)c3cncn3c2c1 (stereo not drawn) [Example 203, 4-amino-N-(cyclopropylmethyl)-N-(1-(5-(trifluoromethyl)pyridin-2-yl)ethyl)imidazo[1,5-a]quinoxaline-8-carboxamide]		155	
CN(C(=O)c1ccc2nc(N)c3cncn3c2c1)C1COc2nc(C(F)(F)F)ccc21 (stereo not drawn) [Example 204, 4-amino-N-methyl-N-(6-(trifluoromethyl)-2,3-dihydrofuro[2,3-b]pyridin-3-yl)imidazo[1,5-a]quinoxaline-8-carboxamide]		238	
Cn1cc(N(C(=O)c2ccc3nc(N)c4cncn4c3c2)[C@@H]2COc3nc(C(F)(F)F)ccc32)cn1 [Example 205a, (S)-4-amino-N-(1-methyl-1H-pyrazol-4-yl)-N-(6-(trifluoromethyl)-2,3-dihydrofuro[2,3-b]pyridin-3-yl)imidazo[1,5-a]quinoxaline-8-carboxamide]		313	
COCCN(Cc1ccc(C(F)(F)F)cn1)C(=O)c1ccc2nc(N)c3cnc(C)n3c2c1 [Example 224, 4-amino-N-(2-methoxyethyl)-1-methyl-N-((5-(trifluoromethyl)pyridin-2-yl)methyl)imidazo[1,5-a]quinoxaline-8-carboxamide]		323	
CN(Cc1ccc(C(F)(F)F)cn1)C(=O)c1cc2c(cc1F)nc(N)c1cccn12 [Example 232, 4-amino-7-fluoro-N-methyl-N-((5-(trifluoromethyl)pyridin-2-yl)methyl)pyrrolo[1,2-a]quinoxaline-8-carboxamide]		2240	

Reference: US20250382296A1, “NITROGEN-CONTAINING FUSED THREE RING PRMT5 INHIBITOR, AND PREPARATION METHOD THEREFOR AND PHARMACEUTICAL USE THEREOF” (Abbisko Therapeutics Co., Ltd., priority 2022, published 2025)
